Experiments:
[1] = molecular target: T1, human type PPARδ ligand-binding domain fused with DNA-binding domain of yeast transcription factor (Homo sapiens, UniProt Q03181); assay: Test of transactivation on PPAR (luciferase reporter, CHO cells), PPARδ; format: cell-based; conditions: luciferase activity after 24 hours, corrected with Renilla internal standard
T1 construct: expressed in transfected cells; host or cells: CHO cells
T1 sequence (Q03181 211-439 limits assumed): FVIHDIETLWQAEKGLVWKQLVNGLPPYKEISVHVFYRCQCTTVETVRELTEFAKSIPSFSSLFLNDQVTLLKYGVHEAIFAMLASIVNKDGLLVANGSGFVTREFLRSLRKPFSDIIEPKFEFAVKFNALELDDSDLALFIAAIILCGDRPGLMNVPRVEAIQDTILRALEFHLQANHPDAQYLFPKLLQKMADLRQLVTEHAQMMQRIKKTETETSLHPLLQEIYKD
Description: (§1) <Test of Transactivation on Peroxisome Proliferator-Activated Receptor (PPAR)
(§2) To CHO cells cultured in a Dulbecco-modified Eagle's medium containing 10% delipidated fetal calf serum (FCS/DMEM), receptor plasmid and its reporter plasmid (STRATAGENE Corp.) that manifest fused protein of DNA-binding domain being transcription factor of yeast with each ligand-binding domain of human type PPAR (Biochemistry, 1993, 32, 5598), and luciferase plasmid of Renilla (PROMEGA Corp.) for internal standard were cotransfected with lipofectamine in the serum-free state. Thereafter, testing compound was added to the 10% SFCS/DMEM and both luciferase activities were measured after 24 hours, which were corrected with internal standard.

[2] = molecular target: T2, human type PPARα ligand-binding domain fused with DNA-binding domain of yeast transcription factor (Homo sapiens, UniProt Q07869); assay: Test of transactivation on PPAR (luciferase reporter, CHO cells), PPARα; format: cell-based; conditions: luciferase activity after 24 hours, corrected with Renilla internal standard
T2 construct: expressed in transfected cells; host or cells: CHO cells
T2 sequence (Q07869 239-466 limits assumed): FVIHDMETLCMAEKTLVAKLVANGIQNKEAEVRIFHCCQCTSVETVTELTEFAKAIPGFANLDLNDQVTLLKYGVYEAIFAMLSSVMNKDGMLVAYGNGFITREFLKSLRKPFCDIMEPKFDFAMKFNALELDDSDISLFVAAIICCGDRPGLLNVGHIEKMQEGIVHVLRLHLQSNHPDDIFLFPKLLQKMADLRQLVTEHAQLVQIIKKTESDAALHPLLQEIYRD
Description: as §1, §2

[3] = molecular target: T3, human type PPARγ ligand-binding domain fused with DNA-binding domain of yeast transcription factor (Homo sapiens, UniProt P37231); assay: Test of transactivation on PPAR (luciferase reporter, CHO cells), PPARγ; format: cell-based; conditions: luciferase activity after 24 hours, corrected with Renilla internal standard
T3 construct: expressed in transfected cells; host or cells: CHO cells
T3 sequence (P37231 238-503 limits assumed): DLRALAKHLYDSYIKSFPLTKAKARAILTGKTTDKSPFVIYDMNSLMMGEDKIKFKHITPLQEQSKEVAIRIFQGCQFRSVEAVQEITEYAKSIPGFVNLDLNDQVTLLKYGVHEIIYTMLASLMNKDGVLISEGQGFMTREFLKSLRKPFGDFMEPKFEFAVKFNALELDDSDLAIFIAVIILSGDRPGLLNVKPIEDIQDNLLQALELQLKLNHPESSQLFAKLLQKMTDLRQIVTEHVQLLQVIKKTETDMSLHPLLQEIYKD
Description: as §1, §2

| EC50 [1] | EC50 [2] | EC50 [3] | melting point | SMILES |
| --- | --- | --- | --- | --- |
| 190 nM | 44 nM | 410 nM |  | CCOc1ccc(CC(CC)C(=O)O)cc1CNC(=O)c1ccc(Oc2ccccn2)cc1 (racemic) [Example 26, 2-[[4-Ethoxy-3-[[[4-(2-pyridyloxy)phenyl]carbonylamino]-methyl]phenyl]methyl]butyric acid] |
| 2200 nM | 340 nM | 5400 nM |  | CCC(Cc1ccc(OC)c(CNC(=O)c2ccc(Oc3cccnc3)cc2)c1)C(=O)O (centres unmarked) [Example 23] |
| > 100000 nM | 140 nM | 9600 nM | 138 to 139 °C | CCC(Cc1ccc(OC)c(C(=O)NCc2ccc(Oc3ccccn3)cc2)c1)C(=O)O (centres unmarked) [Example 18] |
| 210 nM | 60 nM | 550 nM |  | CCOc1ccc(CC(CC)C(=O)O)cc1CNC(=O)c1ccc(Oc2ccccn2)cc1 (single isomer, unassigned; (+)) [Example 27, (+)-2-[[4-Ethoxy-3-[[[4-(2-pyridyloxy)phenyl]carbonylamino]-methyl]phenyl]methyl]butyric acid] |
|  |  |  | 175 to 176 °C | COc1ccc(CCC(=O)O)cc1C(=O)NCc1cccnc1 [Example 16, 3-[3-[N-(3-Pyridylmethyl)carbamoyl]-4-methoxyphenyl]propionic acid] |
| 1100 nM | 190 nM | 580 nM |  | CCOc1ccc(CC(CC)C(=O)O)cc1CNC(=O)c1ccc(Oc2ccccn2)cc1 (single isomer, unassigned; (-)) [Example 28, (−)-2-[[4-Ethoxy-3-[[[4-(2-pyridyloxy)phenyl]carbonylamino]methyl]phenyl]methyl]butyric acid] |

— US7176204B2, “Substituted carboxylic acid derivatives” (Kyorin Pahrmaceutical Co., Ltd., priority 2000, dated 2007)
